We go through 27 compounds from patent publication US20260125378A2, “Heterocyclic Compounds” (BeOne Medicines I GmbH, priority 2023, published 2026).

Some results are limits rather than exact numbers.

For test [1], the target named is T1, Full length DGKζ (in-house protein M1-V929) (Homo sapiens, UniProt Q13574).
T1 construct: His (N); TEV site (N); made in house; host or cells: Sf9 insect cells (Bac-to-Bac baculovirus)
The experiment in a line: Biochemical DGK IC50 assay (ADP-Glo, lipid micelle substrate), DGKζ. The settings on record: 1 hour preincubation, 1 hour reaction, room temperature. The gist of the method:
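Enzyme: full-length human DGKζ M1-V929, produced in baculovirus-infected Sf9 cells; substrate DAG/PS micelles. Buffer 50 mM HEPES, 10 mM MgCl2, 0.01 mM CaCl2, 0.1 mM Na3VO4.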
In general terms: ADP-Glo first removes unused ATP, then detects ADP through luciferase.

The target in test [2] is T2, Full length DGKα (D21-10BG, SignalChem) (Homo sapiens, UniProt P23743).
T2 construct: Full length DGKα (D21-10BG, SignalChem); purchased SignalChem D21-10BG
Briefly: Biochemical DGK IC50 assay (ADP-Glo, lipid micelle substrate), DGKα. The note with it: 1 hour preincubation, 1 hour reaction, room temperature. The gist of the method:
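ADP-Glo luminescence quantified ADP produced after a 1 h room-temperature reaction of full-length DGKα on DAG/PS micelles, in HEPES buffer containing MgCl2, CaCl2, vanadate, BSA and Tween-20. IC50 values derive from activity inhibition over a compound concentration series.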

T2 sequence (P23743 whole entry): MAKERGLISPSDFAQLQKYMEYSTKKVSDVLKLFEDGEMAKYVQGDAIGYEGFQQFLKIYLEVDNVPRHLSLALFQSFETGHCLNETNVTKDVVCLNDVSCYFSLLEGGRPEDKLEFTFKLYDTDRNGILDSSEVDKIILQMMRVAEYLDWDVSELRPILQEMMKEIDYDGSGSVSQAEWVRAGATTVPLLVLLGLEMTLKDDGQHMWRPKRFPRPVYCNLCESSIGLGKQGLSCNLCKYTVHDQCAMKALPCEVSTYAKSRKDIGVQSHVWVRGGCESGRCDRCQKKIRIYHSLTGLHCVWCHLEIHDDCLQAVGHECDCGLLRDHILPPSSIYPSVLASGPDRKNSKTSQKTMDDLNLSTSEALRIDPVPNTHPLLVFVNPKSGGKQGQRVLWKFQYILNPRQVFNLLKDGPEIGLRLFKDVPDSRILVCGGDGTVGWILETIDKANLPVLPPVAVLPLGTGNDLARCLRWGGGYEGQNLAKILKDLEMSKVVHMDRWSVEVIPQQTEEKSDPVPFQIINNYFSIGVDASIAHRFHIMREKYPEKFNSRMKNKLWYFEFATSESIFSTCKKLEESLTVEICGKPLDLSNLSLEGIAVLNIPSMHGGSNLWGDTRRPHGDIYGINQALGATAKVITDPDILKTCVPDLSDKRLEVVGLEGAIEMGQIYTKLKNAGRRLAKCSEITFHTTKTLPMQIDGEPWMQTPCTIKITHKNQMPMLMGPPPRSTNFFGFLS
T1 sequence (Q13574 1-929 isoform Q13574-4): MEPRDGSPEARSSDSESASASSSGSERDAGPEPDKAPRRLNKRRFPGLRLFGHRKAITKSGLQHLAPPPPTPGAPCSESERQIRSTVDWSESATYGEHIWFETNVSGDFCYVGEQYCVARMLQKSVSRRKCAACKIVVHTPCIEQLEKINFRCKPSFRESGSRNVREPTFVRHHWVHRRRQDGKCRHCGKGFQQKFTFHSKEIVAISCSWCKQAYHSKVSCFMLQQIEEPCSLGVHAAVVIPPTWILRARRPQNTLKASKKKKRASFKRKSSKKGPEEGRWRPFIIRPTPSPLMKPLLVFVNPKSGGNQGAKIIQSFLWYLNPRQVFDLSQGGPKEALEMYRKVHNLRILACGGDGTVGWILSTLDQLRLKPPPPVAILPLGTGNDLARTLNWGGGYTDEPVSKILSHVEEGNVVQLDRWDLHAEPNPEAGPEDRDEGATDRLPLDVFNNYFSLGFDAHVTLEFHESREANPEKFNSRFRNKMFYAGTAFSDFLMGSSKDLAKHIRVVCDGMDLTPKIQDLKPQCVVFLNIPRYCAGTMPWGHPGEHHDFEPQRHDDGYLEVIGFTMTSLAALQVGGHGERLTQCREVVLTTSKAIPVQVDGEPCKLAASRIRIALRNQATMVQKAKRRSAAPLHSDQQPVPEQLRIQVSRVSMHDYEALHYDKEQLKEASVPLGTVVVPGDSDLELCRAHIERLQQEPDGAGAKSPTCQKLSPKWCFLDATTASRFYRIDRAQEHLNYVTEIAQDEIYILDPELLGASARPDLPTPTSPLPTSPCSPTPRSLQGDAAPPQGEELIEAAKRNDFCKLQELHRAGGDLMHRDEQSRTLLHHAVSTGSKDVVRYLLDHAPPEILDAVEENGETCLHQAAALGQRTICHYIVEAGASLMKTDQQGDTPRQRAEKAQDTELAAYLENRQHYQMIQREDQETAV

For the compound `COC[C@H]1CN(C(C)c2ccc(F)cc2C(F)(F)F)[C@H](C)CN1c1nc(=O)n(C)c2c1nc(CC#N)n2C` (single isomer, unassigned) [Compound A10a], the IC50 (as a rule, the midpoint of a concentration-inhibition curve) was 405 nM in test [1] and above 10000 nM in test [2].

Regarding `CC(c1ccc2nccnc2c1)N1C[C@H](C)N(c2c(F)c(=O)n(C)c3c2nc(CC#N)n3C)C[C@H]1C` (single isomer, unassigned) [Compound A22a], the IC50 was 26 nM in test [1] and above 10000 nM in test [2].

As to `COc1cc(F)ccc1C(C)N1C[C@H](C)N(c2c(F)c(=O)n(C)c3c2nc(CC#N)n3C)C[C@H]1C` (stereo partly drawn) [Compound A16, 2-(6-fluoro-7-((2S,5R)-4-(1-(4-fluoro-2-methoxyphenyl)ethyl)-2,5-dimethylpiperazin-1-yl)-3,4-dimethyl-5-oxo-4,5-dihydro-3H-imidazo[4,5-b]pyridin-2-yl)acetonitrile], the values for the IC50 in test [1] and in test [2] were 24 nM and 58200 nM, respectively.

On to `CC[C@H]1CN(C(C)c2ccc(F)cc2C(F)(F)F)[C@H](CC)CN1c1nc(=O)n(C)c2c1nc(CC#N)n2C` (single isomer, unassigned) [Compound A34b], for which the IC50 in test [1] was 9 nM; in test [2], above 10000 nM.

With `CCn1c(CC#N)nc2c(N3C[C@@H](C)N(C(C)c4ccc5c(c4)OC(F)(F)CO5)C[C@@H]3C)nc(=O)n(C)c21` (single isomer, unassigned) [Compound A80b], the IC50 in test [1] was 664 nM; in test [2] it was above 150000 nM.

`COC[C@H]1CN(C(C)c2ccc3c(c2)OC(C)(C)CO3)[C@H](C)CN1c1nc(=O)n(C)c2c1nc(CC#N)n2C` (single isomer, unassigned) [Compound A12a]: the values for the IC50 in test [1] and in test [2] were 2.7 nM and 18800 nM, respectively.

`CCn1c(CC#N)nc2c(N3C[C@@H](C)N(C(C)c4ccc(C(F)(F)F)cc4)C[C@@H]3C)nc(=O)n(C)c21` (stereo partly drawn) [Compound A40, 2-(6-((2S,5R)-2,5-dimethyl-4-(1-(4-(trifluoromethyl)phenyl)ethyl)piperazin-1-yl)-9-ethyl-3-methyl-2-oxo-3,9-dihydro-2H-purin-8-yl)acetonitrile]: the 50% inhibitory concentration (IC50) stood at 398 nM in test [1] and 25900 nM in test [2].

For `CCn1c(CC#N)nc2c(N3C[C@@H](C)N(C(C)c4cc(F)c5c(c4)OC(C)(C)O5)C[C@@H]3C)c(F)c(=O)n(C)c21` (stereo partly drawn) [Compound A189, 2-(3-ethyl-6-fluoro-7-((2S,5R)-4-(1-(7-fluoro-2,2-dimethylbenzo[d][1,3]dioxol-5-yl)ethyl)-2,5-dimethylpiperazin-1-yl)-4-methyl-5-oxo-4,5-dihydro-3H-imidazo[4,5-b]pyridin-2-yl)acetonitrile], the IC50 in test [1] is 34 nM; in test [2] it was above 150000 nM.

Take `CCn1c(CC#N)nc2c(N3C[C@@H](C)N(C(C)c4cc(F)c5c(c4)OC(C)(C)O5)C[C@@H]3C)nc(=O)n(C)c21` (single isomer, unassigned) [Compound A173a]: the IC50 in test [1] worked out at 12 nM; in test [2], 51000 nM.

As to `COC[C@H]1CN(C(C)c2ccc3ncc(C)nc3c2)[C@H](C)CN1c1nc(=O)n(C)c2c1nc(CC#N)n2C` (single isomer, unassigned) [Compound A13a], the 50% inhibitory concentration (IC50) in test [1] was 5060 nM; in test [2], above 150000 nM.

Consider `CC(c1ccc2c(c1)OC(C)(C)CO2)N1C[C@H](C)N(c2nc(=O)n(C)c3c2nc(CC#N)n3C)C[C@H]1C` (single isomer, unassigned) [Compound A59b], for which the IC50 in test [1] is 2.3 nM; in test [2], 14200 nM.

With `CC(c1nc2c(cc1F)OCC(C)(C)O2)N1C[C@H](C)N(c2nc(=O)n(C)c3c2nc(CC#N)n3C)C[C@H]1C` (stereo partly drawn) [Compound A162, 2-(6-((2S,5R)-4-(1-(7-fluoro-3,3-dimethyl-2,3-dihydro-[1,4]dioxino[2,3-b]pyridin-6-yl)ethyl)-2,5-dimethylpiperazin-1-yl)-3,9-dimethyl-2-oxo-3,9-dihydro-2H-purin-8-yl)acetonitrile], the IC50 in test [1] is 33 nM; in test [2], 60500 nM.

`CC(c1ccc2c(n1)OC(C)(C)CO2)N1C[C@H](C)N(c2nc(=O)n(C)c3c2nc(CC#N)n3CC(F)F)C[C@H]1C` (stereo partly drawn) [Compound A165, 2-(9-(2,2-difluoroethyl)-6-((2S,5R)-4-(1-(3,3-dimethyl-2,3-dihydro-[1,4]dioxino[2,3-b]pyridin-6-yl)ethyl)-2,5-dimethylpiperazin-1-yl)-3-methyl-2-oxo-3,9-dihydro-2H-purin-8-yl)acetonitrile]: the IC50 in test [1] was 69 nM; in test [2] it was above 150000 nM.

As to `CCn1c(CC#N)nc2c(N3C[C@@H](C)N(C(C)c4cccc(C(C)(C)O)c4)C[C@@H]3C)nc(=O)n(C)c21` (stereo partly drawn) [Compound A111, 2-(9-ethyl-6-((2S,5R)-4-(1-(3-(2-hydroxypropan-2-yl)phenyl)ethyl)-2,5-dimethylpiperazin-1-yl)-3-methyl-2-oxo-3,9-dihydro-2H-purin-8-yl)acetonitrile], the figures for the IC50 in test [1] and in test [2] were 771 nM and above 150000 nM, respectively.

For `CCn1c(CC#N)nc2c(N3C[C@@H](C)N(C(C)c4cc(F)c5c(n4)OC(C)(C)CO5)C[C@@H]3C)nc(=O)n(C)c21` (single isomer, unassigned) [Compound A163a], the IC50 in test [1] was 13 nM; in test [2], above 150000 nM.

Take `CCn1c(CC#N)nc2c(N3C[C@@H](C)N(C(C)c4cccc5c4OC(C)(C)O5)C[C@@H]3C)nc(=O)n(C)c21` (stereo partly drawn) [Compound A186, 2-(6-((2S,5R)-4-(1-(2,2-dimethylbenzo[d][1,3]dioxol-4-yl)ethyl)-2,5-dimethylpiperazin-1-yl)-9-ethyl-3-methyl-2-oxo-3,9-dihydro-2H-purin-8-yl)acetonitrile]: the IC50 was 156 nM in test [1] and 143000 nM in test [2].

On to `CC(c1cc2ccccc2cn1)N1C[C@H](C)N(c2nc(=O)n(C)c3c2nc(CC#N)n3C)C[C@H]1C` (stereo partly drawn) [Compound A154, 2-(6-((2S,5R)-4-(1-(isoquinolin-3-yl)ethyl)-2,5-dimethylpiperazin-1-yl)-3,9-dimethyl-2-oxo-3,9-dihydro-2H-purin-8-yl)acetonitrile], for which the results for the IC50 in test [1] and in test [2] were 178 nM and 2430 nM, respectively.

For `CC(c1cccnc1C(F)(F)F)N1C[C@H](C)N(c2cc(=O)n(C)c3c2nc(CC#N)n3C)C[C@H]1C` (single isomer, unassigned) [Compound A7a], the IC50 in test [1] is 3110 nM; in test [2], above 10000 nM.

Regarding `CCn1c(CC#N)nc2c(N3C[C@@H](C)N(C(C)c4ccnc(-c5ccccc5)c4)C[C@@H]3C)nc(=O)n(C)c21` (stereo partly drawn) [Compound A144, 2-(6-((2S,5R)-2,5-dimethyl-4-(1-(2-phenylpyridin-4-yl)ethyl)piperazin-1-yl)-9-ethyl-3-methyl-2-oxo-3,9-dihydro-2H-purin-8-yl)acetonitrile], the values for the IC50 in test [1] and in test [2] were 60 nM and 74100 nM, respectively.

`CCn1c(CC#N)nc2c(N3C[C@@H](C)N(C(C)c4cc(C(F)(F)F)ccn4)C[C@@H]3C)nc(=O)n(C)c21` (stereo partly drawn) [Compound A120, 2-(6-((2S,5R)-2,5-dimethyl-4-(1-(4-(trifluoromethyl)pyridin-2-yl)ethyl)piperazin-1-yl)-9-ethyl-3-methyl-2-oxo-3,9-dihydro-2H-purin-8-yl)acetonitrile]: the half-maximal inhibitory concentration (IC50) in test [1] was 1280 nM; in test [2], above 150000 nM.

Turning to `CCn1c(CC#N)nc2c(N3C[C@@H](C)N(C(C)c4ccc(C)cc4C(F)(F)F)C[C@@H]3C)nc(=O)n(C)c21` (single isomer, unassigned) [Compound A116a], the figures for the 50% inhibitory concentration (IC50) in test [1] and in test [2] were 7760 nM and above 150000 nM, respectively.

With `CCn1c(CC#N)nc2c(N3C[C@@H](C)N(C(C)c4cccc(C5CC5)c4)C[C@@H]3C)nc(=O)n(C)c21` (stereo partly drawn) [Compound A125, 2-(6-((2S,5R)-4-(1-(3-cyclopropylphenyl)ethyl)-2,5-dimethylpiperazin-1-yl)-9-ethyl-3-methyl-2-oxo-3,9-dihydro-2H-purin-8-yl)acetonitrile], the IC50 in test [1] is 42 nM; in test [2] it was above 150000 nM.

For `CCn1c(CC#N)nc2c(N3C[C@@H](C)N(C(C)c4ccc5ccc(C)nc5c4)C[C@@H]3C)nc(=O)n(C)c21` (stereo partly drawn) [Compound A90, 2-(6-((2S,5R)-2,5-dimethyl-4-(1-(2-methylquinolin-7-yl)ethyl)piperazin-1-yl)-9-ethyl-3-methyl-2-oxo-3,9-dihydro-2H-purin-8-yl)acetonitrile], the figures for the IC50 in test [1] and in test [2] were 213 nM and above 150000 nM, respectively.

Regarding `CC[C@@H]1CN(c2nc(=O)n(C)c3c2nc(CC#N)n3C)[C@@H](C)CN1C(C)c1ccc2c(c1)OC(C)(C)CO2` (single isomer, unassigned) [Compound A63b], the IC50 in test [1] was 22 nM; in test [2], 7400 nM.

As to `CCn1c(CC#N)nc2c(N3C[C@@H](C)N(C(C)c4cccc(OC(C)C)c4)C[C@@H]3C)nc(=O)n(C)c21` (stereo partly drawn) [Compound A43, 2-(9-ethyl-6-((2S,5R)-4-(1-(3-isopropoxyphenyl)ethyl)-2,5-dimethylpiperazin-1-yl)-3-methyl-2-oxo-3,9-dihydro-2H-purin-8-yl)acetonitrile], the IC50 in test [1] is 79 nM; in test [2] it was 101000 nM.

In the case of `CC(c1ccc2c(c1)OC(C)(C)O2)N1C[C@H](C)N(c2nc(=O)n(C)c3c2nc(CC#N)n3C)C[C@H]1C` (single isomer, unassigned) [Compound A98a], the IC50 in test [1] came to 5 nM; in test [2], 14300 nM.

With `CCn1c(CC#N)nc2c(N3C[C@@H](C)N(C(C)c4ccnc5c4OCCC5(F)F)C[C@@H]3C)nc(=O)n(C)c21` (single isomer, unassigned) [Compound A103b], the IC50 in test [1] was 52 nM; in test [2], above 150000 nM.
